Experimental data from US10934310B2, “Inhibitors of Bruton's tyrosine kinase and method of their use” (JANSSEN PHARMACEUTICA NV, priority 2015, dated 2021).

molecular target: unphosphorylated-BTK kinase domain (UP-BTK), GST-tagged human BTK (389-659aa) (Homo sapiens (Human), UniProt Q06187); assay: BTK Kinase Lanthascreen Binding Assay; details: Lanthascreen binding, 60 minutes incubation; pIC50 = negative log of the IC50 in molar
Method: BTK Kinase Lanthascreen Binding Assay:
A BTK kinase lanthascreen binding assay monitors compound binding to unphosphorylated-BTK kinase domain (UP-BTK), by competing with a fluorescent labeled tracer. […] Data were analyzed using Xlfit™ version 5.3 from ID Business Solutions (Guildford), Microsoft Excel add-in. pIC50 refers to the negative log of the IC50 in molar.

Chain of unphosphorylated-BTK kinase domain (UP-BTK), GST-tagged human BTK (389-659aa) (Q06187 389-659): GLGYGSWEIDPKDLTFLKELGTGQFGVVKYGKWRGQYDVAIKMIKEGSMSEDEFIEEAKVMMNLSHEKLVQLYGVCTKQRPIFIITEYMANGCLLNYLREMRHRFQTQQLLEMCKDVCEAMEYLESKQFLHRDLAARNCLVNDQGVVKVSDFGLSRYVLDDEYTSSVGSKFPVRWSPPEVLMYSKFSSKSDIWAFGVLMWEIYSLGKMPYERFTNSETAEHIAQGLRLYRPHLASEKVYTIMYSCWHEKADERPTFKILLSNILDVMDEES

Row | BTK_I_binding pIC50 | SMILES
1 | 5.80 | CCC(=O)N[C@H]1CCN(C(=O)c2sc3nccc4c3c2NC(=O)N4c2ccc(Oc3ccccc3)cc2C)C1 [Example 418, (S)—N-(1-(5-(2-Methyl-4-phenoxyphenyl)-4-oxo-4,5-dihydro-3H-1-thia-3,5,8-triazaacenaphthylene-2-carbonyl)pyrrolidin-3-yl)propionamide]
2 | 7.58 | C=CC(=O)N[C@@H]1CCC[C@H]1NC(=O)c1sc2nccc3c2c1NC(=O)N3c1ncc(Oc2ccccc2)cn1 [Example 307, N-((1R,2R)-2-Acrylamidocyclopentyl)-4-oxo-5-(5-phenoxypyrimidin-2-yl)-4,5-dihydro-3H-1-thia-3,5,8-triazaacenaphthylene-2-carboxamide]
3 | 8.38 | C=CC(=O)N[C@H]1CCC[C@H]1NC(=O)c1sc2nccc3c2c1NC(=O)N3c1ccc(Oc2ccccn2)cc1 [Example 437, N-((1R,2S)-2-Acrylamidocyclopentyl)-4-oxo-5-(4-(pyridin-2-yloxy)phenyl)-4,5-dihydro-3H-1-thia-3,5,8-triazaacenaphthylene-2-carboxamide]
4 | 7.59 | C=CC(=O)N[C@H]1CCC[C@H]1NC(=O)c1sc2nccc3c2c1NC(=O)N3c1ccc(Oc2ccccn2)cn1 [Example 480, N-((1R,2S)-2-Acrylamidocyclopentyl)-4-oxo-5-(5-(pyridin-2-yloxy)pyridin-2-yl)-4,5-dihydro-3H-1-thia-3,5,8-triazaacenaphthylene-2-carboxamide]
5 | 7.48 | C=CC(=O)N[C@H]1CCC[C@H]1NC(=O)c1sc2nccc3c2c1NC(=O)N3c1ccc(Oc2cncnc2)cc1 [Example 508, N-((1R,2S)-2-acrylamidocyclopentyl)-4-oxo-5-(4-(pyrimidin-5-yloxy)phenyl)-4,5-dihydro-3H-1-thia-3,5,8-triazaacenaphthylene-2-carboxamide]

same assay, conditions: compound, 50 nM Tracer 236, 2 nM anti-GST antibody, 60 minutes; pIC50 = negative log of the IC50 in molar

Row | BTK_I_binding pIC50 | SMILES
6 | 6.07 | CN[C@@H]1CCCC[C@@H]1NC(=O)c1sc2nccc3c2c1NC(=O)N3c1ccc(Oc2ccccc2)cc1C [Example 50, 5-(2-Methyl-4-phenoxyphenyl)-N-((1S,2R)-2-(methylamino)cyclohexyl)-4-oxo-4,5-dihydro-3H-1-thia-3,5,8-triazaacenaphthylene-2-carboxamide]
7 | 8.06 | C=CC(=O)N[C@H]1CCC[C@H]1NC(=O)c1sc2nccc3c2c1NC(=O)N3c1cnnc(-c2ccccc2)c1 [Example 203, N-((1R,2S)-2-Acrylamidocyclopentyl)-4-oxo-5-(6-phenylpyridazin-4-yl)-4,5-dihydro-3H-1-thia-3,5,8-triazaacenaphthylene-2-carboxamide]
8 | 6.39 | Cc1cc(OC(C)C)ccc1N1C(=O)Nc2c(C(=O)N[C@@H]3CCC[C@@H]3N)sc3nccc1c23 (single isomer, unassigned) [Example 262, N-((1R,2S)-2-Aminocyclopentyl)-5-(*R)-(4-isopropoxy-2-methylphenyl)-4-oxo-4,5-dihydro-3H-1-thia-3,5,8-triazaacenaphthylene-2-carboxamide]
9 | 6.21 | N[C@H]1CCC[C@H]1NC(=O)c1sc2nccc3c2c1NC(=O)N3c1cc(-c2ccccc2)ccn1 [Example 267, N-((1R,2S)-2-Aminocyclopentyl)-4-oxo-5-(4-phenylpyridin-2-yl)-4,5-dihydro-3H-1-thia-3,5,8-triazaacenaphthylene-2-carboxamide]
10 | 6.19 | O=C(N[C@H]1CCC[C@@H](O)C1)c1sc2nccc3c2c1NC(=O)N3c1ccc(Oc2ccccc2)cc1 [Example 157, N-((1S,3R)-3-Hydroxycyclohexyl)-4-oxo-5-(4-phenoxyphenyl)-4,5-dihydro-3H-1-thia-3,5,8-triazaacenaphthylene-2-carboxamide]

The remaining lines, values behind:

Row | SMILES | BTK_I_binding pIC50
11 | Cc1cc(Oc2ccccc2)ccc1N1C(=O)Nc2c(C(=O)N[C@H]3CCCC[C@H]3N)sc3nccc1c23 [Example 49, N-((1S,2R)-2-Aminocyclohexyl)-5-(2-methyl-4-phenoxyphenyl)-4-oxo-4,5-dihydro-3H-1-thia-3,5,8-triazaacenaphthylene-2-carboxamide] | 6.12
12 | CC(C)(C)OC(=O)N[C@H]1CC[C@@H](NC(=O)c2sc3nccc4c3c2NC(=O)N4c2ccc(Oc3ccccc3)cc2)CC1 [Example 163, tert-Butyl ((1S,4S)-4-(4-oxo-5-(4-phenoxyphenyl)-4,5-dihydro-3H-1-thia-3,5,8-triazaacenaphthylene-2-carboxamido)cyclohexyl)carbamate] | 5.43
13 | Cc1cc(Oc2ccccc2)ncc1N1C(=O)Nc2c(C(=O)N[C@@H]3CCC[C@H]3N)sc3nccc1c23 (single isomer, unassigned) [Example 233] | 6.85
14 | CO[C@H]1CC[C@H](NC(=O)c2sc3nccc4c3c2NC(=O)N4c2ccc(Oc3ccccc3)cc2C)CC1 [Example 18, N-((1R,4R)-4-Methoxycyclohexyl)-5-(2-methyl-4-phenoxyphenyl)-4-oxo-4,5-dihydro-3H-1-thia-3,5,8-triazaacenaphthylene-2-carboxamide] | 6.99
15 | CC(=O)N[C@@H]1CCC[C@H]1NC(=O)c1sc2nccc3c2c1NC(=O)N3c1ccc(Oc2ccccc2)cc1C [Example 11, N-((1R,2R)-2-Acetamidocyclopentyl)-5-(2-methyl-4-phenoxyphenyl)-4-oxo-4,5-dihydro-3H-1-thia-3,5,8-triazaacenaphthylene-2-carboxamide] | 7.24

same assay, conditions: read-out: BTK_I_binding pIC50 (converted)

Row | IC50 [µM] | SMILES
16 | 0.0141 | C=CC(=O)NC1CCC(NC(=O)c2sc3nccc4c3c2NC(=O)N4c2ccc(Oc3ccccc3)cn2)C1 (racemic) [Example 214, N-((1RS,3RS)-3-Acrylamidocyclopentyl)-4-oxo-5-(5-phenoxypyridin-2-yl)-4,5-dihydro-3H-1-thia-3,5,8-triazaacenaphthylene-2-carboxamide]
17 | > 1 | CC(=O)N[C@@H]1CCCC[C@H]1NC(=O)c1sc2nccc3c2c1NC(=O)N3c1ccc(Oc2ccccc2)nc1C (single isomer, unassigned) [Example 362, N-((1R,2R)-2-Acetamidocyclohexyl)-5-(*S)-(2-methyl-6-phenoxypyridin-3-yl)-4-oxo-4,5-dihydro-3H-1-thia-3,5,8-triazaacenaphthylene-2-carboxamide]
18 | > 1 | CC(=O)N[C@@H]1CCC[C@@H]1NC(=O)c1sc2nccc3c2c1NC(=O)N3c1ccc(Oc2ccccc2)cc1C (single isomer, unassigned) [Example 162, N-((1S,2R)-2-Acetamidocyclopentyl)-5-(*S)-(2-methyl-4-phenoxyphenyl)-4-oxo-4,5-dihydro-3H-1-thia-3,5,8-triazaacenaphthylene-2-carboxamide]
19 | 0.0776 | C=CC(=O)N[C@@H]1CC[C@@H](NC(=O)c2sc3nccc4c3c2NC(=O)N4c2ccc(Oc3ccccc3)nc2)C1 (racemic) [Example 188, N-((1RS,3RS)-3-Acrylamidocyclopentyl)-4-oxo-5-(6-phenoxypyridin-3-yl)-4,5-dihydro-3H-1-thia-3,5,8-triazaacenaphthylene-2-carboxamide]

Row | SMILES | IC50 [µM]
20 | C=CC(=O)N[C@H]1CCC[C@H](NC(=O)c2sc3nccc4c3c2NC(=O)N4c2ccc(OC(C)C)cc2C)C1 (single isomer, unassigned) [Example 274, N-((1S, S)-3-Acrylamidocyclohexyl)-5-(*R)-(4-isopropoxy-2-methylphenyl)-4-oxo-4,5-dihydro-3H-1-thia-3,5,8-triazaacenaphthylene-2-carboxamide] | > 1
